Like-named read-outs stand apart in the source and are kept apart here.
Columns and labels:
[1] = cited from earlier work
[2] = tested on: Wistar rats; details: rat, in vivo
Experimental: The tests were performed according to Organization for Economic Cooperation and development OECD 423 guide. The methodology consisted of toxicity by evaluating and analyzing of the biochemical and histopathological parameters which resulted from administration thereof.

[3] = tested on: Wistar rats; details: rat, in vivo; remark: listed apart in the source
Experimental: In the slices of the liver of the Wistar rats, it was evaluated the presence of hepatic necrosis, proliferation of biliary ducts, proliferation of fibrous conjunctive tissue, and blood extravasation (Cunha, et. al., 2009).

| Compound | solubility in acid or diluted alkaline solutions ([1]; acid or diluted alkaline solutions) | solubility in alcohol ([1]; alcohol) | solubility in water ([1]; water) | short-term repeated-dose toxicity [2] | histopathological evaluation of the liver ([3]; 50 mg/kg) | histopathological evaluation of the liver ([3]; 300 mg/kg) | histopathological evaluation of the liver ([3]; 2000 mg/kg) | histopathological evaluation of the livers ([3]; po) | macroscopic tests of the organs ([3]; po) |
| --- | --- | --- | --- | --- | --- | --- | --- | --- | --- |
| Nc1nc2c(ncn2COCCO)c(=O)[nH]1 [acyclovir] | only slight soluble | insoluble | poorly soluble |  |  |  |  |  |  |
| pseudoboehmite |  |  |  | low | tissue integrity | a sinusoidal congestion was detected | tissue integrity | there were not observed any changes in the tissue integrity or apparent injuries | No abnormal changes |

Reference: US20170296545A1, “Composition Of A Ceramic Matrix With A Controlled Release Drug, A Tablet Obtained From The Composition And Methods For Obtaining The Composition And The Tablet” (priority 2009, published 2017)
